Results from US8829203B2, “3′,6-substituted indirubins and their biological applications” (Centre National de la Recherche Scientifique (CNRS), priority 2008, dated 2014).
Where a name gives a salt, the structure may show the parent alone.

Columns and labels:
[1] = test system: GSK-3-phosphorylated β-catenin; assay: β-catenin phosphorylation at GSK-3 sites in SH-SY5Y cells (Western blot / ELISA); type: cell-based, human; details: 6 hours, 10 μM or range of concentrations, with 2 μM MG132
Description: 2a. […] The level of GSK-3-phosphorylated β-catenin was estimated by Western blotting following SDS-PAGE, using an antibody that specifically cross-reacts with GSK-3 phosphorylated β-catenin. […] 2b. Dose-response curves for a selection of indirubins were run in an ELISA assay using the same antibodies directed against GSK-3 phosphorylated β-catenin. SH-SY5Y cells were exposed for 6 hours to a range of concentrations of each indirubin, in the presence of MG132, and extracts were assessed in the ELISA assay. Activity was expressed as percentage of phosphorylated β-catenin in untreated control cells.
Nearly confluent SH-SY5Y human neuroblastoma cells were grown in 96 plates in DMEM (supplemented with 10% FCS and antibiotics). Cells were co-treated with tested compounds and 2 μM MG132 (to allow accumulation of phosphorylated β-catenin) for 6 hours. […] Cells were then subjected to an ELISA assay using antibodies directed against Ser33/Ser37/Thr41-phosphorylated (1:1000) p-catenin obtained from Cell Signaling Technology. Results are expressed in percentage of maximal β-Catenin phosphorylation, i.e. in untreated cells exposed to MG132 only as positive control (100% phosphorylation).
Cells were resuspended, lysed for 30 min at 4° C. in Homogenization Buffer and sonicated. After centrifugation (14000 r.p.m. for 15 min at 4° C.), the protein concentration was determined in the supernatants by the Bradford protein assay (Bio-Rad). Following heat denaturation for 5 min, proteins were separated by 10% NuPAGE pre-cast Bis-Tris Acetate polyacrylamide mini gel (Invitrogen) with MOPS SDS running buffer. Proteins were transferred to 0.45 μm nitrocellulose filters (Schleicher and Schuell). These were blocked with 5% low fat milk in Tris-Buffered Saline—Tween-20, incubated overnight at 4° C. with antibodies directed against Ser33/Ser37/Thr41-phosphorylated β-catenin (1:1000) (Cell Signaling Technology) and analyzed by Enhanced Chemiluminescence (ECL, Amersham).
Cells were exposed to various concentrations […] of each indirubin in the presence of a constant level of MG132 (an inhibitor of the proteasome which prevented the rapid degradation of β-catenin once phosphorylated by GSK-3). The level of GSK-3-phosphorylated was estimated either by Western blotting (with an antibody that specifically cross-reacts with β-catenin when phosphorylated at a GSK-3 site) following SDS-PAGE (FIG. 2a) or by an ELISA assay (FIG. 2b). […] Dose-response curves were obtained with ELISA assay (FIG. 2b).

[2] = biological target: GSK-3α/β; assay: GSK-3α/β kinase assay (GS-1 substrate, 15 μM ATP); type: biochemical, porcine; details: 30° C., 30 min, read-out: GSK3 IC50
Description: (§1) Blank values were subtracted and activities calculated as pmoles of phosphate incorporated during a […] incubation. The activities were expressed in % of the maximal activity, i.e. in the absence of inhibitors. Controls were performed with appropriate dilutions of dimethylsulfoxide. Phosphorylation of the substrate was assessed by the P81 phosphocellulose assay.
GSK-3α/β was purified from porcine brain by affinity chromatography on immobilized axin^5. […] ATP (3,000 Ci/mmol; 10 mCi/ml) in a final volume of 30 μl. After 30 min. incubation at 30° C., 25 μl aliquots of supernatant were processed as described above.

[3] = biological target: CDK5/p25 (Homo sapiens, UniProt Q00535); assay: CDK5/p25 kinase assay (histone H1, 15 μM ATP); type: biochemical; details: 30° C., 30 min
Description: as §1
CDK5/p25 was reconstituted by mixing equal amounts of recombinant human CDK5 and p25 expressed in E. coli as GST (Glutathione-S-transferase) fusion proteins and purified by affinity chromatography on glutathione-agarose (p25 is a truncated version of p35, the 35 kDa CDK5 activator). Its activity was assayed with histone H1 in buffer C as described for CDK1/cyclin B.

[4] = biological target: CDK1/cyclin B; assay: CDK1/cyclin B kinase assay (histone H1, 15 μM ATP); type: biochemical, starfish (Marthasterias glacialis); details: 30° C., 30 min

CDK5/p25, sequence (Q00535 whole entry): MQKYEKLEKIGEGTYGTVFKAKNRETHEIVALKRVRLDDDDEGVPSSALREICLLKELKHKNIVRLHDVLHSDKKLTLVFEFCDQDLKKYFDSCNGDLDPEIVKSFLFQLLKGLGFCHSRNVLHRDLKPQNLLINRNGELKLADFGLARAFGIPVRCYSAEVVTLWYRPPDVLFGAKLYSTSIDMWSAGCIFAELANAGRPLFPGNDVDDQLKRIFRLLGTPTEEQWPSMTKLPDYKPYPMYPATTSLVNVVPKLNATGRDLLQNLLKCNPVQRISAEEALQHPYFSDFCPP
CDK5/p25, sequence (Q15078 99-307 partner limits assumed): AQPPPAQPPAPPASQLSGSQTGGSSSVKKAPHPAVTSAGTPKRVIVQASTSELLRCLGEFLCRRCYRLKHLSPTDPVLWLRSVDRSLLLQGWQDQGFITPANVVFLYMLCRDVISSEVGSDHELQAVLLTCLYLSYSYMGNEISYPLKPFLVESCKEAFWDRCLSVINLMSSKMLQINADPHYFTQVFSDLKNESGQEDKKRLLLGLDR

Row | SMILES | Inhibition of β-catenin phosphorylation at GSK-3 sites [1] | melting point | IC50 [2] | IC50 [3] | IC50 [4]
1 | O=C1Nc2cc(Br)ccc2/C1=C1/Nc2ccccc2/C1=N\OCC(O)CO (stereo not shown) [Cpd 3, (2′Z-3′E)-6-Bromoindirubin-3′-[O-(2,3-dihydroxypropyl)-oxime]] | most efficient | > 300 °C | 34 nM | 25 nM | 110 nM
2 | O=C1Nc2cc(Br)ccc2/C1=C1/Nc2ccccc2/C1=N\OCCBr [Cpd 1, (2′Z-3′E)-6-Bromoindirubin-3-[O-(2-bromoethyl)-oxime]] |  | 252 °C | 140 nM |  | > 10000 nM
3 | O=C1Nc2cc(Br)ccc2/C1=C1/Nc2ccccc2/C1=N\OCCN1CCCC1 [Cpd 7, (2′Z-3′E)-6-Bromoindirubin-3′-[O-(2-pyrrolidin-1-ylethyl)oxime]] |  |  | 26 nM | 130 nM | 500 nM
4 | CN1CCN(CCO/N=C2/C(=C3/C(=O)Nc4cc(Br)ccc43)Nc3ccccc32)CC1 [Cpd 23, (2′Z-3′E)-6-Bromoindirubin-3′-{O-[2-(4-methylpiperazin-1-yl)ethyl]oxime}Dihydrochloride] | most efficient |  | 5 nM | 300 nM | 300 nM
5 | O=C1Nc2cc(Br)ccc2/C1=C1/Nc2ccccc2/C1=N\OCCN1CCN(CCO)CC1 [Cpd 13] | most efficient |  |  |  | 
6 | CCN(CC)CCO/N=C1/C(=C2/C(=O)Nc3cc(Br)ccc32)Nc2ccccc21 [Cpd 6, (2′Z-3′E)-6-Bromoindirubin-3′-[O-(2-diethylaminoethyl)-oxime]] |  |  | 35 nM | 20 nM | 90 nM
7 | O=C1Nc2cc(Br)ccc2/C1=C1/Nc2ccccc2/C1=N\OCCN1CCNCC1 [Cpd 22, (2′Z-3′E)-6-Bromoindirubin-3′-[O-(2-piperazine-1-ylethyl)oxime]Dihydrochloride] | most efficient |  |  | 180 nM | 
8 | CN(C)CCO/N=C1/C(=C2/C(=O)Nc3cc(Br)ccc32)Nc2ccccc21 [Cpd 5, (2′Z-3′E)-6-Bromoindirubin-3′-[O-(2-dimethylaminoethyl)-oxime]] | most efficient |  |  |  | 
9 | COCCN1CCN(CCO/N=C2/C(=C3/C(=O)Nc4cc(Br)ccc43)Nc3ccccc32)CC1 [Cpd 25] |  |  | 20 nM | 400 nM | 1000 nM
10 | COCCN1CCN(CCO/N=C2/C(=C3/C(=O)Nc4cc(Br)ccc43)Nc3ccccc32)CC1 [Cpd 14] |  |  | 11 nM | 500 nM | 2800 nM
11 | CN(C)CCO/N=C1/C(=C2/C(=O)Nc3cc(Br)ccc32)Nc2ccccc21 [Cpd 16, (2′Z-3′)-6-Bromoindirubin-3′-[O-(2-dimethylaminoethyl)oxime]Hydrochloride] | most efficient |  |  |  | 
12 | O=C1Nc2cc(Br)ccc2/C1=C1/Nc2ccccc2/C1=N\OCCN1CCN(CCO)CC1 [Cpd 24] | most efficient |  |  |  | 
13 | O=C1Nc2cc(Br)ccc2/C1=C1/Nc2ccccc2/C1=N\OCCN1CCN(CCOCCO)CC1 [Cpd 26, (2′Z-3′E)-6-Bromoindirubin-3′-[O-(2-{4-[2-(2-hydroxyethoxy)-ethyl]piperazin-1-yl}ethyl)oxime]Dihydrochloride] |  |  | 33 nM | 330 nM | 500 nM
14 | CN1CCN(CCO/N=C2/C(=C3/C(=O)Nc4cc(Br)ccc43)Nc3ccccc32)CC1 [Cpd 12, (2′Z-3′E)-6-Bromoindirubin-3′-{O-[2-(4-methyl-piperazin-1-yl)ethyl]oxime}] | most efficient |  | 7 nM | 400 nM | 400 nM
15 | CCN(CC)CCO/N=C1/C(=C2/C(=O)Nc3cc(Br)ccc32)Nc2ccccc21 [Cpd 17, (2′Z-3′E)-6-Bromoindirubin-3′-[O-(2-diethylaminoethyl)oxime]Hydrochloride] |  |  | 27 nM | 40 nM | 190 nM
16 | CN(CCO/N=C1/C(=C2/C(=O)Nc3cc(Br)ccc32)Nc2ccccc21)CC(O)CO (stereo not shown) [Cpd 10, (2′Z-3′E)-6-Bromoindirubin-3′-(O-{2-[-methyl, N-(2,3-dihydroxypropyl)amino]ethyl}oxime]] |  | 195 °C | 67 nM | 240 nM | 240 nM
17 | O=C1Nc2cc(Br)ccc2/C1=C1/Nc2ccccc2/C1=N\OCCO [Cpd 2, (2′Z-3′E)-6-Bromoindirubin-3′-[O-(2-hydroxyethyl)-oxime]] |  |  | 1700 nM | 5000 nM | 1700 nM
18 | O=C1Nc2cc(Br)ccc2/C1=C1/Nc2ccccc2/C1=N\OCCN1CCNCC1 [Cpd 11, (2′Z-3′E)-6-Bromoindirubin-3′-[O-(2-piperazine-1-ylethyl)oxime]] | most efficient |  |  |  | 
19 | CCN(CC)C(=O)O/N=C1/C(=C2/C(=O)Nc3cc(Br)ccc32)Nc2ccccc21 [Cpd 4, (2′Z-3′E)-6-Bromoindirubin-3′-[O-(N,N-diethylcarbamyl)-oxime]] |  | 237 °C | 30 nM |  | > 10000 nM
20 | CN1C(=O)C(=C2Nc3ccccc3C2=NO)c2ccc(Br)cc21 [1-methyl-6BIO, reference compound] | ineffective |  |  |  | 
21 | O=C1Nc2cc(Br)ccc2/C1=C1/Nc2ccccc2/C1=N\OCCN1CCOCC1 [Cpd 8, (2′Z-3′E)-6-Bromoindirubin-3′-[O-(2-morpholin-1-ylethyl)oxime]] |  | 235 °C |  |  | 
22 | CN(CCON=C1C(=C2C(=O)Nc3cc(Br)ccc32)Nc2ccccc21)CC(O)CO (stereo not shown) [Cpd 21] |  |  | 23 nM | 100 nM | 150 nM
23 | O=C1Nc2cc(Br)ccc2/C1=C1/Nc2ccccc2/C1=N\OCCN1CCCC1 [Cpd 18, (2′Z-3′)-6-Bromoindirubin-3′-[O-(2-pyrrolidin-1-ylethyl)oxime]Hydrochloride] |  |  | 54 nM | 100 nM | 450 nM
24 | O=C1Nc2cc(Br)ccc2/C1=C1/Nc2ccccc2/C1=N\OCCN(CCO)CCO [Cpd 9] | most efficient | 201 °C |  |  | 
